Converted amounts (≈) assume the structure as drawn.
How the values were obtained:
Assay type in all cases: functional
Conditions in all cases: variant bovis BCG
[1] = test system: Mycobacterium tuberculosis; experiment: Antibacterial activity against Mycobacterium bovis BCG harboring moaD gene by microplate Alamar Blue assay
[2] = test system: Mycobacterium tuberculosis; experiment: Antibacterial activity against Mycobacterium bovis BCG harboring pil8 gene by microplate Alamar Blue assay
[3] = test system: Mycobacterium tuberculosis; experiment: Antibacterial activity against Mycobacterium bovis BCG harboring fbiC gene by microplate Alamar Blue assay
[4] = test system: Mycobacterium tuberculosis; experiment: Antibacterial activity against wild-type Mycobacterium bovis BCG by microplate Alamar Blue assay
[5] = test system: Mycobacterium tuberculosis; experiment: Antibacterial activity against Mycobacterium bovis BCG harboring fgd gene by microplate Alamar Blue assay
[6] = test system: Mycobacterium tuberculosis; experiment: Antibacterial activity against Mycobacterium bovis BCG harboring moaA gene by microplate Alamar Blue assay

Row | SMILES | MIC [1] | MIC [2] | MIC [3] | MIC [4] | MIC [5] | MIC [6]
1 | O=C(Nc1ccc([N+](=O)[O-])cc1Cl)c1cc(Cl)ccc1O [NICLOSAMIDE] | 1.9 µM (≈ 0.622 µg/mL) | 1.87 µM (≈ 0.612 µg/mL) | 1.57 µM (≈ 0.514 µg/mL) | 3.13 µM (≈ 1.02 µg/mL) | 1.61 µM (≈ 0.527 µg/mL) | 1.86 µM (≈ 0.608 µg/mL)
2 | O=[N+]([O-])c1cn2c(n1)OC[C@@H](OCc1ccc(OC(F)(F)F)cc1)C2 [PRETOMANID] | > 128 µM | > 128 µM | > 128 µM | 0.12 µM (≈ 0.0431 µg/mL) | > 128 µM | > 128 µM
3 | CCOC(=O)c1c(C)[n+]([O-])c2ccc(Cl)cc2[n+]1[O-] | 0.55 µM (≈ 0.155 µg/mL) | 0.72 µM (≈ 0.204 µg/mL) | 0.71 µM (≈ 0.201 µg/mL) | 0.5 µM (≈ 0.141 µg/mL) | 0.5 µM (≈ 0.141 µg/mL) | 0.38 µM (≈ 0.107 µg/mL)

Source: ChEMBL document CHEMBL1671624, “Efficacy of quinoxaline-2-carboxylate 1,4-di-N-oxide derivatives in experimental tuberculosis” (Antimicrob Agents Chemother, 2008)
